Like-named read-outs stand apart in the source and are kept apart here.
How the values were obtained:
[1] = tested on: EA.hy926 cells; experiment: MTT cytotoxicity assay, EA.hy926; assay type: cell-based, human
Excerpt: The EA.hy926 cells (the human umbilical vein, somatic cell hybrid) (American Type Culture Collection) are immortalized human umbilical vein endothelial cells. They have morphological, phenotypic and functional characteristics of human endothelial cells, without the limited lifespan. This cell line has been considered as a good model for anticancer drug screening and was chosen to evaluate the endothelial cytotoxicity of novel compounds.
(§1) The MTT assay was used to evaluate cell metabolic activity. The test principle is based on the determination of cell viability by measuring the metabolic activity in mitochondria. Enzymatically active mitochondria reduce the water-soluble MTT (3-(4,5-dimethylthiazol-2-yl)-2,5 diphenyltetrazoliumbromide) to blue–violet insoluble formazan. The number of viability cells is proportional to the colour intensity determined by photometric measurements (an analytical wavelength 570 nm) after dissolving the formazan in Dimethylsulfoxide (DMSO) (Serva) and Sorensen’s glycine buffer. MTT (Sigma Aldrich) was dissolved in Phosphate Buffered Saline (PBS) (PAN-Biotech) at a concentration of 0.5 mg/mL. Sorensen’s glycine buffer is made of 0.1 M glycine and 0.1 M NaCl, at pH 10.5. Studied compounds were dissolved in DMSO in order to receive stock solutions.
(§2) For the assay, cells were seeded into 96-well plates at density 10^4 cells per well and cultured for 24 h at 37 °C and 5% CO2. Then medium was removed, and cells were exposed to the 100 µL of the compound solutions over a range of concentrations (final DMSO concentration was below 0.2%) or nothing but culture medium (blank control). Pure DMSO was used as a positive control. After 24 h of incubation with the compound solutions, medium was removed and 50 µL of the MTT solution was added to each well and incubated in the dark for additional 2 h at 37 °C. Then the MTT solution was carefully removed and 100 µL of DMSO was added. Plates were incubated for 10 min at room temperature. Finally, 5 µL of Sorensen Buffer was added to each well. Plate was swayed, and the absorbance was measured by using microplate reader (Synergy H1, BioTek, Winooski, VT, USA) at a wavelength of 570 nm. The cell viability was expressed as a percentage of the control values (blank). The experiments were done in triplicate.

[2] = tested on: HT-29 cells; experiment: MTT cytotoxicity assay, HT-29; assay type: cell-based; conditions: Homo sapiens, read-out: IC50 µM ± SD against HT-29
Excerpt: as §1, §2

[3] = tested on: supercoiled pUC19 DNA; conditions: 100 µM; human Topoisomerase I
[4] = tested on: SH-SY5Y cells; experiment: Cytoprotection against rotenone/oligomycin A, pre-incubation, MTT; assay type: cell-based, human; conditions: for Cytoprotection: pre-incubation with rotenone/oligomycin A;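 as to Cytoprotection: Toxic mixture Rotenone 30 µM plus Oligomycin A 10 µM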
Experimental: Rotenone with oligomycin A (R/O) were taken to induce mitochondrial ROS by blocking of complexes I and V of the mitochondrial electron transport chain. It causes free radical production and blockade of ATP synthesis. In the pre-incubation experiment, it could be assessed whether the compounds have cytoprotective properties due to the activation of endogenous antioxidant pathways. In the co-incubation could be shown whether compounds are free-radical scavengers. MTT assay was a test of choice, because in this assay mitochondrial activity is measured. […] It can be determined whether novel compound would protect cells from both apoptotic and necrotic death resulting from the increase of intracellular ROS. In both experiments, trolox was used as a reference compound. […] After this time, toxic mixture was added, and cells were maintained for an additional 24 h in the presence of the compounds.

[5] = tested on: HT-29 cells; experiment: Reactive oxygen species assay (DCFH-DA), HT-29; assay type: cell-based, human; conditions: compound at IC50 24 h plus H2O2, H2O2 only 1.88-fold
Experimental: After incubation, compounds were added into the wells and further incubated for next 24 h. H2O2 (1 mM) was added at 22nd h of incubation with compounds. H2O2 was used as a positive control. 30 min before the analysis, DCFH-DA (20 µM) was added to the wells. After incubation, cells were harvested and washed in PBS. Then, cells were centrifuged at 1500 rpm for 10 min. Medium was removed and cells were suspended in PBS. Analysis was performed on BD Accuri C6 Flow Cytometry (Becton–Dickinson).

[6] = tested on: A549 cells; experiment: MTT cytotoxicity assay, A549; assay type: cell-based, human
Excerpt: A549 cell line (lung carcinoma from human) (European Collection of Cell Culture) and HT-29 cell line (colorectal adenocarcinoma from human) (American Type Culture Collection) were chosen to evaluate the cytotoxicity of novel compounds.
as §1, §2

[7] = tested on: SH-SY5Y cells; experiment: Cytoprotection against H2O2 (100 µM), MTT; conditions: for Cells viability (%) ± SD after 24 h of incubation with compound and H2O2: H2O2 only 82.74%; for viability at 1 µM: Homo sapiens, 24 h, read-out: Cells viability (%) ± SD after 24 h of incubation with compound and H2O2
[8] = tested on: PARP-1; experiment: Western blot of PARP-1 cleavage, HT-29; assay type: cell-based, human; conditions: HT-29, 24 h, IC50 and 1/2IC50
Experimental: (§3) Then, cells were treated with chosen compounds. After 24 h of incubation, monolayer and supernatant were harvested and washed in cold PBS. Cells were centrifuged—monolayer at 1200 rpm for 10 min, supernatant 3500 rpm for 10 min. Pellets were dissolved in RIPA Lysis and Extraction buffer (Bio-Rad) containing Phosphatase Inhibitor Cocktail 3 (Sigma Aldrich) and Protease Inhibitor Cocktail (Sigma Aldrich). Samples were incubated in ice for 30 min and mixed every 10 min. Then, samples were centrifuged at 12,000 rpm for 25 min. Protein concentration in supernatants was measured in triplicate using a Protein Assay (Bio-Rad). Proteins were separated by SDS–polyacrylamide gel electrophoresis. Separating and stacking gels were made of different ratios of water, Tris–HCl pH 6.8 and pH 8.8, 10% SDS (Sigma Aldrich), Acrylamide/bis-acrylamide (Sigma Aldrich), 10% APS (Sigma Aldrich), TEMED (Sigma Aldrich). 7.5% gels were prepared for analysis PARP-1, whereas 12% gels prepared for γ-H2AX. After separation on SDS–polyacrylamide gels, proteins were electroblotted on nitrocellulose membrane in Transfer Buffer (Glycine, Tris, Methanol). Membranes were washed in TBS/0.1% or 0.05% Tween20 solution and blocked in Tris-buffered saline with 5% of non-fated dried milk for 1 h. Membranes were then incubated overnight with primary antibodies—anti-PARP-1 (Cell Signaling Technology), anti-γ-H2A.X (Cell Signaling Technology), anti-β-actin (Cell Signaling Technology) in cold room (6 °C). After incubation, membranes well washed with TBS/Tween solution and blocked with and horseradish peroxidase-conjugated secondary antibodies (Bio-Rad) for 1 h in cold room. Protein bands were visualized using ECL™ Prime Western Blotting Detection Reagents (Sigma Aldrich) Healthcare and Carestream Kodak autoradiography GBX fixer/replenisher (Sigma Aldrich) with Developer and Replenisher (Carestream) in the dark room. Results were obtained on Autoradiography Film (Santa Cruz Biotechnology). Densitometric analysis was performed by using a software program (ImageJ). […]

[9] = tested on: γ-H2AX; experiment: Western blot of γ-H2AX, HT-29; assay type: cell-based, human; conditions: HT-29, 24 h, IC50 and 1/2IC50
Experimental: as §3

[10] = tested on: SH-SY5Y cells; experiment: Cytoprotection against rotenone/oligomycin A, co-incubation, MTT; assay type: cell-based, human; conditions: co-incubation with rotenone/oligomycin A
Experimental: In the co-incubation assay, compounds and mixture of R/O were incubated together for 24 h. […] It turned out that none of the compounds (apart from 1i at the concentration of 0.001 µM and cytoprotection of 2.99%) had cytoprotective properties in the whole range of concentrations (Fig. 17). Compounds were not able to capture free radicals; therefore they cannot be classified as free-radical scavengers.

[11] = target: T1, hyaluronidase from bovine testes Type I-S (Bos taurus, UniProt Q2YDK3); experiment: Hyaluronidase inhibition assay (turbidimetric); assay type: biochemical; conditions: read-out: HYAL IC50 ± SD
T1 construct: purchased Sigma Aldrich; host or cells: bovine testes (tissue-derived preparation)
T1 sequence (Q2YDK3 36-553): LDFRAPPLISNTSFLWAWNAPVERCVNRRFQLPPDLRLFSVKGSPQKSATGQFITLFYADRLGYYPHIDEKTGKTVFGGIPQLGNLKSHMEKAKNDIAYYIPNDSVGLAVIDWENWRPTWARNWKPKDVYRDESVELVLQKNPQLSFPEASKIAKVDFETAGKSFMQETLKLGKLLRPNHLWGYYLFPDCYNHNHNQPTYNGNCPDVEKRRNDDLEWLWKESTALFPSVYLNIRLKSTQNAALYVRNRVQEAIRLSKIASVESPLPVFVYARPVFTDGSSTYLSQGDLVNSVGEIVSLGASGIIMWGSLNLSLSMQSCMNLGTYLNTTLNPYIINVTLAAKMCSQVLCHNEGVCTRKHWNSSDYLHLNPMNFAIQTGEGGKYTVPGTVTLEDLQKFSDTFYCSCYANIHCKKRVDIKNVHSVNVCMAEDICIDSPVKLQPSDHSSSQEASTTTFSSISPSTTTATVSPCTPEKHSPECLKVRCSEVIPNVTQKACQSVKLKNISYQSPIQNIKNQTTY

[12] = Homo sapiens, A549, MTT, 24 h incubation, read-out: IC50 µM ± SD against A549

Q: How did the IC50 ([1]; Homo sapiens, EA.hy 926, MTT, 24 h incubation, read-out: IC50 µM ± SD against EA.hy926) turn out when `O=c1[nH]cc(F)c(=O)[nH]1` [5-Fluorouracil, reference compound] was run?
A: > 1800 µM

Q: What about the IC50 ([2]; HT-29, MTT, 24 h incubation) of the same molecule?
A: 1630 ± 49.3 µM

Q: With `COc1cc(NS(C)(=O)=O)ccc1Nc1c2ccccc2nc2ccccc12` [amsacrine, reference compound] as the molecule, how does the “Intercalation: supercoiled pUC19 DNA band (in words)” value [3] read?
A: stronger intercalator than EB

Q: Which results are given for `O=C(NCCCCNc1c2c(nc3ccccc13)CCCC2)c1cccc(I)c1` [Compound 1f]?
A: Cytoprotection ([4]; 0.001 µM): 57.16%; Cytoprotection ([4]; 0.01 µM): 35.65%; Cytoprotection ([4]; 0.1 µM): 35.21%; Cytoprotection ([4]; 1 µM): 30.81%; Cytoprotective properties in the pre-incubation assay (in words) ([4]; rotenone/oligomycin A, range of concentration 1–0.001 µM): showed their action against oxidative stress in the whole range of concentrations; IC50 ([1]; Homo sapiens, EA.hy 926, 24 h, read-out: IC50 µM ± SD against EA.hy926, MTT, 24 h incubation): 11.7 µM; IC50 ([1]; read-out: IC50 µM ± SD against EA.hy926, MTT, 24 h incubation): 12.4 ± 1.31 µM; Increase in ROS level (DCF fluorescence) in comparison with non-treated control [5]: 1.87 fold; Intercalation: supercoiled pUC19 DNA band (in words) [3]: bands at the same level as EB; IC50 ([2]; HT-29, 24 h): 8.52 ± 0.1 µM; IC50 ([6]; Homo sapiens, A549, 24 h, read-out: IC50 µM ± SD against A549, MTT, 24 h incubation): 23.5 µM; IC50 ([6]; read-out: IC50 µM ± SD against A549, MTT, 24 h incubation): 26.4 ± 2.45 µM; Cells viability (%) ± SD after 24 h of incubation with compound and H2O2 ([7]; H2O2 100 µM, concentration: 1b 16.26, 1c 6.79, 1e 11.75, 1f 4.26, 1i 5.90 µM): 79.45 ± 9.87%; Cells viability (%) ± SD after 24 h of incubation with compound and H2O2 ([7]; H2O2 100 µM, concentration: 1b 65.04, 1c 27.16, 1e 46.98, 1f 17.04, 1i 29.74 µM): 23.85 ± 2.08 %; viability at 1 µM [7]: 94.3 ± 7.26%; Cleaved PARP-1 (89 kDa) level (in words) [8]: lower apoptosis at IC50 concentrations; γ-H2AX protein level / DNA damage (in words) [9]: strongest H2AX phosphorylation

Q: How did the Cytoprotection ([4]; 0.001 µM) turn out when `Cc1c(C)c2c(c(C)c1O)CCC(C)(C(=O)O)O2` (centres unmarked) [Trolox, 6-hydroxy-2,5,7,8-tetramethylchroman-2-carboxylic acid, reference compound] was run?
A: 0.98%

Q: What about the Cytoprotection ([4]; 1 µM) of the same molecule?
A: 0.53%

Q: And the Cytoprotection ([10]; 0.001 µM)?
A: 9.08%

Q: What about the Cytoprotection ([10]; 0.01 µM) of the same molecule?
A: 8.18%

Q: What about the Cytoprotection ([10]; 0.1 µM) of the same molecule?
A: 4.02%

Q: What about the Cytoprotection ([10]; 1 µM) of the same molecule?
A: 6.12%

Q: And the “Cytoprotection against H2O2” value ([7]; H2O2 100 µM, 1 µM)?
A: 96.38%

Q: And the viability at 1 µM [7]?
A: 99.4 ± 9.81%

Q: What does the source list for `O=C(NCCNc1c2c(nc3ccccc13)CCCC2)c1ccc(I)cc1` [Compound 1g]?
A: IC50 [11]: 191 ± 10.8 µM; IC50 ([2]; HT-29, MTT, 24 h incubation): 8.16 ± 0.44 µM; IC50 [6, 12]: 20.8 ± 1.58 µM

Q: Which results are given for `O=C(NCCNc1c2c(nc3ccccc13)CCCC2)c1cccc(I)c1` [Compound 1d]?
A: IC50 [11]: 300 ± 6.3 µM; IC50 ([2]; HT-29, MTT, 24 h incubation): 7.62 ± 0.19 µM; IC50 [6, 12]: 41.2 ± 1.27 µM

Q: Which results are given for `O=C(NCCNc1c2c(nc3ccccc13)CCCC2)c1ccccc1I` [Compound 1a]?
A: IC50 [11]: 234 ± 7.9 µM; IC50 ([2]; HT-29, MTT, 24 h incubation): 17.3 ± 1.22 µM; IC50 [6, 12]: 36 ± 1.74 µM

Q: How did the IC50 [11] turn out when `O=C(NCCCNc1c2c(nc3ccccc13)CCCC2)c1ccc(I)cc1` [Compound 1h] was run?
A: 201 ± 8.36 µM

Q: What about the IC50 ([2]; HT-29, MTT, 24 h incubation) of the same molecule?
A: 9.4 ± 1.65 µM

Q: What about the IC50 [6, 12] of the same molecule?
A: 21.4 ± 1.54 µM

Q: With Heparin [reference compound] as the molecule, how does the IC50 [11] read?
A: 56.4 ± 0.78 µM
